Where “and” joins values, the source holds several entries; their conditions need not be identical. Equal values may be shown once. Toxic doses and inconclusive results are not listed. How the source made its calls: active means survival T/C of 150% or more; inactive means T/C below 125% in these data.
System: CD2F1 mice, L1210 leukemia ip, survival T/C
Assay: NCI In Vivo Anticancer Drug Screen. Data for tumor model L1210 Leukemia (intraperitoneal) in CD2F1 (CDF1) mice
Conditions: endpoint: mean survival time, higher = longer survival
How it was run: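 Ratio T/C, where T is the treated-group value and C the vehicle-dosed control value, from mice implanted with a transplantable tumor.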

[1] = dose: 100.0 mg/kg/injection, schedule: Q04DX002 (ip), vehicle: saline with Tween-80
[2] = dose: 200.0 mg/kg/injection, schedule: Q04DX002 (ip), vehicle: saline with Tween-80
[3] = dose: 400.0 mg/kg/injection, schedule: Q04DX002 (ip), vehicle: saline with Tween-80
[4] = dose: 6.25 mg/kg/injection, schedule: Q01DX009 (ip), vehicle: saline
[5] = dose: 12.5 mg/kg/injection, schedule: Q01DX009 (ip), vehicle: saline
[6] = dose: 100.0 mg/kg/injection, schedule: Q04DX003 (ip), vehicle: saline
[7] = dose: 200.0 mg/kg/injection, schedule: Q04DX003 (ip), vehicle: saline
[8] = dose: 25.0 mg/kg/injection, schedule: Q01DX009 (ip), vehicle: saline
[9] = dose: 100.0 mg/kg/injection, schedule: Q01DX001 (ip), vehicle: saline
[10] = dose: 200.0 mg/kg/injection, schedule: Q01DX001 (ip), vehicle: saline
[11] = dose: 400.0 mg/kg/injection, schedule: Q01DX001 (ip), vehicle: saline
[12] = dose: 100.0 mg/kg/injection, schedule: Q01DX001 (ip), vehicle: saline with Tween-80
[13] = dose: 100.0 mg/kg/injection, schedule: Q01DX009 (ip), vehicle: saline with Tween-80
[14] = dose: 100.0 mg/kg/injection, schedule: Q04DX003 (ip), vehicle: saline with Tween-80
[15] = dose: 200.0 mg/kg/injection, schedule: Q01DX001 (ip), vehicle: saline with Tween-80
[16] = dose: 200.0 mg/kg/injection, schedule: Q01DX009 (ip), vehicle: saline with Tween-80
[17] = dose: 200.0 mg/kg/injection, schedule: Q04DX003 (ip), vehicle: saline with Tween-80
[18] = dose: 400.0 mg/kg/injection, schedule: Q01DX001 (ip), vehicle: saline with Tween-80
[19] = dose: 400.0 mg/kg/injection, schedule: Q04DX003 (ip), vehicle: saline with Tween-80

Measured: T/C

N#Cc1nc2c(n(O)c1=N)CCC/C2=N\O
inactive: dose: 100.0 mg/kg/injection, schedule: Q04DX003 (ip), vehicle: Klucel (hydroxypropylcellulose) (HPC) 98 % of control | dose: 200.0 mg/kg/injection, schedule: Q04DX003 (ip), vehicle: Klucel (hydroxypropylcellulose) (HPC) 98 % of control | dose: 400.0 mg/kg/injection, schedule: Q04DX003 (ip), vehicle: Klucel (hydroxypropylcellulose) (HPC) 91 % of control

N#CC(c1cccc([N+](=O)[O-])c1)C(CC(=O)c1ccccc1)c1ccccc1 (configuration not stated)
inactive: [1] 95 % of control | [2] 95 % of control | [3] 102 % of control

COc1ccc(NC(=O)Oc2cccc(C)c2)cc1
inactive: [1] 90 % of control | [2] 97 % of control | [3] 93 % of control

COC1N(C2CC(O)C(CO)O2)C(=O)NC(=O)C1(F)Br (configuration not stated)
inactive: dose: 1.56 mg/kg/injection, schedule: Q01DX009 (ip), vehicle: saline 97 % of control and 108 % of control | dose: 3.12 mg/kg/injection, schedule: Q01DX009 (ip), vehicle: saline 115 % of control and 117 % of control | [4] 112 % of control | [5] 109 % of control | [6] 110 % of control | [7] 122 % of control

C/C(=N\O)c1ccc2[nH]c(C)cc(=O)c2c1
inactive: dose: 37.5 mg/kg/injection, schedule: Q01DX009 (ip), vehicle: saline 97 % of control | dose: 75.0 mg/kg/injection, schedule: Q01DX009 (ip), vehicle: saline 97 % of control | dose: 75.0 mg/kg/injection, schedule: Q04DX003 (ip), vehicle: saline 95 % of control | dose: 150.0 mg/kg/injection, schedule: Q01DX009 (ip), vehicle: saline 92 % of control | dose: 150.0 mg/kg/injection, schedule: Q04DX003 (ip), vehicle: saline 95 % of control | dose: 300.0 mg/kg/injection, schedule: Q04DX003 (ip), vehicle: saline 93 % of control

C[As](C)[Se]C1OC(CO)C(O)C(O)C1O (configuration not stated)
inactive: [5] 103 % of control | dose: 12.5 mg/kg/injection, schedule: Q04DX003 (ip), vehicle: saline 94 % of control | [8] 100 % of control | dose: 25.0 mg/kg/injection, schedule: Q04DX003 (ip), vehicle: saline 97 % of control | dose: 50.0 mg/kg/injection, schedule: Q01DX009 (ip), vehicle: saline 102 % of control | dose: 50.0 mg/kg/injection, schedule: Q04DX003 (ip), vehicle: saline 100 % of control

CCN(CC)C(=O)c1cc[n+](Cc2ccc(Cl)cc2)cc1
inactive: [6] 106 % of control | [7] 103 % of control

CCOC(=O)C(C(=O)OC)C(=O)OCC
inactive: [9] 95 % of control | [10] 103 % of control | [11] 103 % of control

Cc1cc(O)c(C(C)C)cc1N=O
inactive: [12] 96 % of control | [13] 94 % of control | [14] 103 % of control | [15] 94 % of control | [16] 88 % of control | [17] 100 % of control | [18] 89 % of control | dose: 400.0 mg/kg/injection, schedule: Q01DX009 (ip), vehicle: saline with Tween-80 87 % of control | [19] 106 % of control

O=C1C(Br)CCC1C(O)(C(F)(F)F)C(F)(F)F (configuration not stated)
inactive: dose: 50.0 mg/kg/injection, schedule: Q01DX009 (ip), vehicle: saline with Tween-80 98 % of control | [13] 102 % of control | [14] 92 % of control | [16] 104 % of control | [17] 91 % of control

CCN=C(NCC)SCCSC(=NCC)NCC
inactive: [1] 104 % of control | [2] 102 % of control

OC1C(I)CC(Cl)C2CCC[N-]C12.OC1C(I)CC(Cl)C2CCC[N-]C12.[Cu+2] (configuration not stated)
inactive: [1] 96 % of control | [2] 92 % of control | [3] 88 % of control

CC1(C)C2(C)CC12C (configuration not stated)
inactive: dose: 1.25 mg/kg/injection, schedule: Q04DX002 (ip), vehicle: saline with Tween-80 97 % of control | dose: 2.5 mg/kg/injection, schedule: Q04DX002 (ip), vehicle: saline with Tween-80 97 % of control | dose: 5.0 mg/kg/injection, schedule: Q04DX002 (ip), vehicle: saline with Tween-80 97 % of control | dose: 10.0 mg/kg/injection, schedule: Q04DX002 (ip), vehicle: saline with Tween-80 97 % of control

O=C(COc1ccc(Cl)c(Cl)c1)Nc1ccc(C(=O)CCl)cc1
inactive: [14] 100 % of control | [17] 97 % of control | [19] 114 % of control

CCc1ccc(NN=Nc2ccccc2C#N)cc1
inactive: [14] 95 % of control | [17] 95 % of control | [19] 98 % of control

O=Cc1ccc(N=Nc2c(S(=O)(=O)O)cc3cc(S(=O)(=O)O)cc(O)c3c2O)cc1
inactive: [13] 100 % of control | [14] 96 % of control | [16] 88 % of control | [19] 88 % of control

CSc1ncc(N=C=O)c(=O)[nH]1
inactive: [12] 94 % of control | [15] 94 % of control

COC(=O)NC(S(=O)(=O)O)S(=O)(=O)O
inactive: [9] 108 % of control | [10] 101 % of control | [11] 108 % of control

CCCCCCCCCCCCCCCCN(C)S(=O)(=O)c1cccc(S(=O)(=O)F)c1
inactive: [14] 95 % of control | [17] 101 % of control | [19] 102 % of control

COCc1nnc2nc[nH]c(=O)c2n1
inactive: dose: 100.0 mg/kg/injection, schedule: Q01DX001 (ip), vehicle: carboxymethylcellulose (CMC) 98 % of control | dose: 200.0 mg/kg/injection, schedule: Q01DX001 (ip), vehicle: carboxymethylcellulose (CMC) 101 % of control

CC(C)(C)C1SCC(CO)CS1 (configuration not stated)
inactive: [1] 97 % of control | [2] 102 % of control | [3] 91 % of control

COc1ccc(Nc2ccnc3cc(Cl)ccc23)cc1CN(CCCl)CCCl
inactive: [4] 117 % of control | [8] 88 % of control

C[CH2][Pb]([CH2]C)([CH2]C)[O]C(=O)c1ccc2ccccc2n1
inactive: dose: 0.4 mg/kg/injection, schedule: Q01DX009 (ip), vehicle: saline 103 % of control | dose: 0.8 mg/kg/injection, schedule: Q01DX009 (ip), vehicle: saline 103 % of control | dose: 1.6 mg/kg/injection, schedule: Q01DX009 (ip), vehicle: saline 101 % of control

O=C(COc1cccc(Cl)c1)NCc1ccccc1
inactive: [14] 99 % of control | [17] 96 % of control | [19] 99 % of control

CCOC(=O)c1c(O)csc1N
inactive: [14] 110 % of control | [17] 98 % of control | [19] 98 % of control

OC(C/C(=N\Nc1ccccc1)c1ccc(Br)cc1)(C(F)(F)F)C(F)(F)F
inactive: [12] 96 % of control | [15] 95 % of control | [18] 97 % of control
